“And” between values parts separate entries of the source, which are not always exact repeats. Equal entries are not always repeated.
Columns and labels:
[1] = target: T1, human DNA polymerase eta (hpol η) (Homo sapiens, UniProt Q9Y253); assay: Fluorescence-based polymerase strand-displacement assay, hpol η; type: biochemical; conditions: for IC50: read-out: IC50 for inhibition of hpol η, 10 nM hpol η, 50 nM DNA, 0.1 mM dTTP, mean ± standard deviation, triplicate
T1 sequence (Q9Y253 1-437): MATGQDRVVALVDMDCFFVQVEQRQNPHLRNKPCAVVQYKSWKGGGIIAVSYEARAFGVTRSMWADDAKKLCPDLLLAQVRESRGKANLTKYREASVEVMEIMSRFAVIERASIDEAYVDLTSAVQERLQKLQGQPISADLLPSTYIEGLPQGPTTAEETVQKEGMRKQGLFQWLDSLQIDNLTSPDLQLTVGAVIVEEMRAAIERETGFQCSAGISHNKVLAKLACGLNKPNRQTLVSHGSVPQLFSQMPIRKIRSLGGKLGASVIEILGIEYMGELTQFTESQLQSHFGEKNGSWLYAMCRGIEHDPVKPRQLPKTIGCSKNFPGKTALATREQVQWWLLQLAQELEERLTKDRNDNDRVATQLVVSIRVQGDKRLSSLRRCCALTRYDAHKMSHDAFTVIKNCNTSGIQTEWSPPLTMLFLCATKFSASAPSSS

hetero-dimeric hpol γ = target: T2, hetero-dimeric hpol γ (Homo sapiens, UniProt P54098); assay: Fluorescence-based polymerase assay, hpol γ; type: biochemical; conditions: read-out: IC50 for inhibition of hpol γ; 10 nM hpol γ, 50 nM DNA; mean ± standard deviation
T2 sequence (P54098 1-1239): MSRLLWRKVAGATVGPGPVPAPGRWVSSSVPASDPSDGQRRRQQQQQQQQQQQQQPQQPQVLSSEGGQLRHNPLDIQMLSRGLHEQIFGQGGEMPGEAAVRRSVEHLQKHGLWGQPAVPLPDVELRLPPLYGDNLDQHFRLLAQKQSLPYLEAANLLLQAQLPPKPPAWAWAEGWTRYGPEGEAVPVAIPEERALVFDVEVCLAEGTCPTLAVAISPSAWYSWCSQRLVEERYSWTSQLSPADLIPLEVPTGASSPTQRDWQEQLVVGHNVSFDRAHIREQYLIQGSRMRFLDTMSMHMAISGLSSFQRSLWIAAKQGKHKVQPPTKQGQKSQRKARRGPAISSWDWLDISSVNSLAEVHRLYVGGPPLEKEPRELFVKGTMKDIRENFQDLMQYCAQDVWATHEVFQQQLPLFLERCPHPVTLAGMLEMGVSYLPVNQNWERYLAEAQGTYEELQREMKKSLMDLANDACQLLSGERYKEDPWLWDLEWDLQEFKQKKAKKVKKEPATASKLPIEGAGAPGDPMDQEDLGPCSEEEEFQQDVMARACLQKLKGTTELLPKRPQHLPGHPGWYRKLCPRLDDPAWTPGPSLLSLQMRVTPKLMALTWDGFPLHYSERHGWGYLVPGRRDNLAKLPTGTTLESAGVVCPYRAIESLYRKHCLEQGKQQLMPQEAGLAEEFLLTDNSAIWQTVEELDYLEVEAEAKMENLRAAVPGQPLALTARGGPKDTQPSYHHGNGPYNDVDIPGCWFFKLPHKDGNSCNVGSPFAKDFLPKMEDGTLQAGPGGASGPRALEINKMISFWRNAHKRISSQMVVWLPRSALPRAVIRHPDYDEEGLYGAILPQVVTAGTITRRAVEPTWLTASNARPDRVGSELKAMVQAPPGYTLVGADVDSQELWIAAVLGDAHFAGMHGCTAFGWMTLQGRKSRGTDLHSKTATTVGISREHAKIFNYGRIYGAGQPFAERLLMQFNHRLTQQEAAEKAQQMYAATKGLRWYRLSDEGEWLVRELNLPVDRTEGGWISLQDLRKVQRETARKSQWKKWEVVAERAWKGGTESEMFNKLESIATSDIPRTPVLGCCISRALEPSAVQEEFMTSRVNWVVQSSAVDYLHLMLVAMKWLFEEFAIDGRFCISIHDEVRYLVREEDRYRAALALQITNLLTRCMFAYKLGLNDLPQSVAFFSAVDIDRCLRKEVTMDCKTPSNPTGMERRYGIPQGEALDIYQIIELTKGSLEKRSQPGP
T2 sequence (Q9UHN1 26-485 partner limits assumed): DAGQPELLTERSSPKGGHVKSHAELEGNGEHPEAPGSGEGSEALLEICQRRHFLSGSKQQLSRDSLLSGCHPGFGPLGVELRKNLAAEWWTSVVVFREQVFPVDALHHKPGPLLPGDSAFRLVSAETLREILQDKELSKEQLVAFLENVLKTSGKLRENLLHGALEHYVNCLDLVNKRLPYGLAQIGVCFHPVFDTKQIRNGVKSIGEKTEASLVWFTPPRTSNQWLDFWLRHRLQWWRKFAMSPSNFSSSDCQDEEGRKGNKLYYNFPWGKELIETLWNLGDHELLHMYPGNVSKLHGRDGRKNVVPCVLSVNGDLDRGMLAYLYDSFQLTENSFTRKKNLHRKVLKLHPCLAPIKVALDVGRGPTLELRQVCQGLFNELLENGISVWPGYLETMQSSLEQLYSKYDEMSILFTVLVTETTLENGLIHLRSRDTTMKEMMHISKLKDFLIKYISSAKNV

[2] = target: T3, human Y-family DNA polymerase kappa (hpol κ) (Homo sapiens, UniProt Q9UBT6); assay: Fluorescence-based polymerase assay, hpol κ; type: biochemical; conditions: read-out: IC50 for inhibition of hpol κ; 3 nM hpol κ, 60 nM DNA; mean ± standard deviation
T3 sequence (Q9UBT6 19-526): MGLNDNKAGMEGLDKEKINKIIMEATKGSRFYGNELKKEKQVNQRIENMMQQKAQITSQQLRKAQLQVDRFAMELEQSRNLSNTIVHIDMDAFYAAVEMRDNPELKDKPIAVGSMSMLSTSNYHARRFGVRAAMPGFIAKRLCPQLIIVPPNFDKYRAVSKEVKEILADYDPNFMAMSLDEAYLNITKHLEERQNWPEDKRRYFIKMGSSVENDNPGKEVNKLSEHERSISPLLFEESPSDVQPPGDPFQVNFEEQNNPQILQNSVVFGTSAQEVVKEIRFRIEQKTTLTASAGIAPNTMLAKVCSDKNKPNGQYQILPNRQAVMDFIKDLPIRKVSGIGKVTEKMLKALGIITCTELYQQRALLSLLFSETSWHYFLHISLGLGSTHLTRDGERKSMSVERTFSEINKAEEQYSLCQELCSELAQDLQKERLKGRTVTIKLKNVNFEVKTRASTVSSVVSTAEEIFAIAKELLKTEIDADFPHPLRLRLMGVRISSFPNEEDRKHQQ

human tumor cell lines = conditions: cited from earlier work
hpol η = conditions: cited from earlier work
hpol ι = target: T4, hpol ι (Homo sapiens, UniProt Q9UNA4); conditions: cited from earlier work
T4 sequence (Q9UNA4 26-446): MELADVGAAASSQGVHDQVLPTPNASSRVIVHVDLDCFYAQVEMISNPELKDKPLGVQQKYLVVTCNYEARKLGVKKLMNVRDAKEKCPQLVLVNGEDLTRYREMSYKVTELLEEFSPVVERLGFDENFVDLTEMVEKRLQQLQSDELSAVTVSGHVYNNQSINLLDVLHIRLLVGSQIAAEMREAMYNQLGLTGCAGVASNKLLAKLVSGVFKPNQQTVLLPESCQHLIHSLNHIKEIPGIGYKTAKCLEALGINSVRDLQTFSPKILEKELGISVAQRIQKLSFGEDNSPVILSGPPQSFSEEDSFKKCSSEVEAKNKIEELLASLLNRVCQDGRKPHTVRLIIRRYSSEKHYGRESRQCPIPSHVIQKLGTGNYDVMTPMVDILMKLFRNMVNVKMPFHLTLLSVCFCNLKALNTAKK

hpol β = conditions: cited from earlier work

Compound: O=C1NC(=S)NC(=O)C1=Cc1cn(C(=O)c2cccc3ccccc23)c2ccc(Cl)cc12 [ITBA-16]
- Fold by which IC50 for hpol η is lower than any of the other pols tested ([1]; hpol η versus seven other polymerases): over 2 fold
- IC50 [1]: 16 µM and 15.8 µM
- IC50 (hetero-dimeric hpol γ): 35.3 ± 2.9 µM
- IC50 [2]: 32.9 ± 3.2 µM

Compound: O=C1NC(=S)NC(=O)C1=Cc1cn(C(=O)c2cccc3ccccc23)c2ccc(Cl)cc12 [ITBA-17]
- Anti-proliferative and cytotoxic properties (human tumor cell lines): potent anti-proliferative and cytotoxic properties

Compound: O=C1NC(=S)NC(=O)C1=Cc1cn(C(=O)c2ccc3ccccc3c2)c2ccccc12 [ITBA-18]
- Inhibition of hpol η activity (percent activity relative to control), in words ([1]; 50 μM compound, relative to DMSO control (Figure 4C)): roughly equal activity against hpol η
- IC50 [1]: 67.8 ± 3.3 µM

Compound: CC(C)c1ccc2c(c1)c(SC(C)(C)C)c(CC(C)(C)C(=O)O)n2Cc1ccc(Cl)cc1 [MK886]
- IC50 (hpol η; read-out: IC50 for inhibition of hpol η): ~46 µM
- Inhibition of hpol ι relative to other Y-family pols (hpol ι; hpol ι versus other Y-family pols): five- to eight-times more effectively
- IC50 (hpol ι; read-out: IC50 for inhibition of hpol ι): 9 µM

Compound: O=C(O)C1=CC(=C(c2ccc(O)c(C(=O)O)c2)c2ccc(O)c(C(=O)O)c2)C=CC1=O [aurintricarboxylic acid]
- IC50 for inhibition of hpol η (hpol η): sub-micromolar
- IC50 for inhibition of hpol ι (hpol ι): sub-micromolar
- IC50 for inhibition of hpol β (hpol β): sub-micromolar
- Specificity against hpol β (hpol β): greater than 2 fold

Compound: O=c1oc2c(O)c(O)cc3c(=O)oc4c(O)c(O)cc1c4c23 [ellagic acid]
- IC50 for inhibition of hpol η (hpol η): sub-micromolar
- IC50 for inhibition of hpol ι (hpol ι): sub-micromolar
- IC50 for inhibition of hpol β (hpol β): sub-micromolar
- Specificity against hpol β (hpol β): greater than 2 fold
